Measured values from US20060106064A1, “Butyrophenones and sigma-1 receptor antagonists protect against oxidative-stress” (University of North Texas Health Science Center at Fort …, priority 2004, published 2006).
“Also recorded” adds a separate entry of the source. Where two headings read alike, the source gives them in different places.

How the values were obtained:
[1] = target: T1, human Sigma-1 receptor (Homo sapiens, UniProt Q99720); test: [3H]-(+)-pentazocine binding to MCF-7 cells stably expressing the cloned human Sigma-1 receptor; conditions: for affinity for the Sigma-1 receptor in words: FIG. 6
T1 construct: expressed in transfected cells
T1 sequence (Q99720 whole entry): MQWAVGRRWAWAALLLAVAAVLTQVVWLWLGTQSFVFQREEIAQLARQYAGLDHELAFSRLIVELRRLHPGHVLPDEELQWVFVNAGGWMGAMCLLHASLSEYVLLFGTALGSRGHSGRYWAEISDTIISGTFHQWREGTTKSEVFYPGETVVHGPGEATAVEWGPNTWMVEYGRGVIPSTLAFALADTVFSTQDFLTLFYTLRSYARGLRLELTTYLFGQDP

[2] = system: HT-22 cells; test: in vitro protection assay, glutamate-induced oxidative stress HT-22 cell model (Calcein AM cell survival)
[3] = system: stroke (ICD-9 433, 434, 435)
[4] = system: ferric chloride-induced lipid peroxidation in rat brain membranes; test: ferric chloride-induced lipid peroxidation in rat brain membranes (antioxidant activity); format: biochemical; conditions: even very high concentrations
Protocol: […]. Antioxidant activity was measured by the ability of compounds to prevent ferric chloride-induced lipid peroxidation in rat brain membranes. The antioxidant ZYC5 is a known antioxidant control. […]. In summary, in vitro protection against glutamate-induced oxidative stress in HT-22 cells is mediated by antagonism of Sigma-1 receptors.

[5] = system: tMCAO induced brain injury; test: transient middle cerebral artery occlusion (tMCAO) ischemic stroke model, infarct volume by triphenyltetrazolium staining; format: in vivo, rat; conditions: 0.05 mg/kg acute, immediately after induction of 60 minute occlusion, ovariectomized female Sprague-Dawley rats, assessed 24 hrs after the stroke
[6] = system: NMDA receptors; conditions: cited from earlier work
[7] = Table 4, read-out: Affinity for the cloned Sigma-1 receptor (Ki ± SEM)
[8] = read-out: Potency (EC50 ± SEM nM), Table 4
[9] = Table 2, receptor target screen
[10] = read-out: Potency (EC50 ± SEM), Table 2, receptor target screen
[11] = read-out: Potency (EC50 ± SEM), Table 5
[12] = Mus musculus, HT-22, read-out: Potency (EC50 ± SEM, nM)
[13] = patients with CABG in 1997, N = 11,444
[14] = protection against oxidative stress induced by 20 mM glutamate, Table 1

| Compound | in vitro protection in words ([2]; FIGS. 2, 3 and 6) | Efficacy ± SEM ([2]; Table 4) | Efficacy ± SEM [2, 9] | EC50 [2, 12] [nM] | Efficacy ± SEM [2, 14] | also measured |
| --- | --- | --- | --- | --- | --- | --- |
| OC1(c2ccc(Cl)c(C(F)(F)F)c2)CCN(CCCC(c2ccc(F)cc2)c2ccc(F)cc2)CC1 [Penfluridol, 1-[4,4-bis(4-fluorophenyl)butyl]-4-[4-chloro-3-(trifluoromethyl)phenyl]-piperidin-4-ol] | moderate protective potency | 80 ± 20 |  |  |  | affinity for the Sigma-1 receptor in words [1]: moderate affinity; Ki [1, 7]: 53 ± 15 nM; EC50 [2, 8]: 350 ± 246 nM |
| CN1CCN(CCc2ccc(Cl)c(Cl)c2)CC1 [BD1063] |  | 61 ± 7.5 | 61 ± 7.5 |  |  | Ki [1, 7]: 3.1 ± 1.4 nM; Ki ([1]; Table 5, own value, read-out: Affinity for the Sigma-1 receptor (Ki)): 3.1 nM; Efficacy ± SEM ([2]; Table 5): 61 ± 7.5; EC50 [2, 8]: 5.9 ± 3.5 nM; EC50 [2, 10]: 5.9 ± 3.5 nM; EC50 [2, 11]: 5.9 ± 3.5 nM |
| O=c1[nH]c2ccccc2n1C1CCN(CCCC(c2ccc(F)cc2)c2ccc(F)cc2)CC1 [Pimozide] |  |  | 0 | > 1000 |  | EC50 ([2]; Mus musculus, HT-22, read-out: In vitro Protective Potency (EC50 ± SEM, nM)): > 1000 nM |
| OC(CCCN1CCC(O)(c2ccc(Cl)cc2)CC1)c1ccc(F)cc1 (centres unmarked) | high potency protection | 58 ± 5.6 |  |  |  | affinity for the Sigma-1 receptor in words [1]: high affinity; EC50 [2, 8]: 12.9 ± 12.2 nM |
| CC(=O)CC(c1ccccc1)c1c(O)c2ccccc2oc1=O (centres unmarked) [Coumadin] |  |  |  |  |  | B (logistic regression coefficient for stroke) ([3]; full model N = 145,576): 1.018; Odds Ratio for stroke ([3]; full model N = 145,576): 2.769; times more likely to have a stroke during the year ([3]; general model): about 2.7 times; B (logistic regression coefficient for stroke) [3, 13]: 0.849; Odds Ratio for stroke [3, 13]: 2.337 |
| CN1CCN(C2=Nc3cc(Cl)ccc3Nc3ccccc32)CC1 [Clozapine] |  |  |  |  | 0 |  |
| CCC(Oc1ccc(Cl)cc1)C(=O)OC1CC2CCC(C1)N2C (centres unmarked) [SM-21] | no protective effect |  | 0 |  |  | EC50 [2, 10]: > 1000 nM; EC50 [2, 11]: > 1000 nM |
| Cc1c(C2CCN(CCc3ccccc3)CC2)noc1-c1ccc(Cl)cc1 [L741742, 5-(4-Chlorophenyl)-4-methyl-3-(l-(2-phenylethyl)piperidin-4-yl)isoxazole] |  | 61 ± 2.7 | 61 ± 2.7 |  |  | Ki [1, 7]: 4.8 ± 0.41 nM; EC50 ([2]; read-out: In vitro Protective Potency (EC50 ± SEM), Table 3): 1.2 ± 0.82 nM; EC50 [2, 8]: 1.2 ± 0.82 nM; EC50 [2, 10]: 1.2 ± 0.82 nM |
| Clc1ccc2c(c1)C(N1CCNCC1)=Nc1ccccc1O2 [Amoxapine] |  |  | 0 |  |  |  |
| CN(C)CC/C=C1/c2ccccc2Sc2ccc(Cl)cc21 [Chlorprothixene] |  |  |  | > 1000 | 0 |  |
| O=C(c1ccc(F)cc1)C1CCN(CCn2c(=O)[nH]c3ccccc3c2=O)CC1 [Ketanserin] |  |  | 0 | > 1000 |  |  |
| O=C(OCCN1CCOCC1)C1(c2ccccc2)CCCCC1 [PRE-084] |  |  | 0 |  |  | EC50 [2, 10]: > 1000 nM; EC50 [2, 11]: > 1000 nM |
| O=C(CCCN1CCC2(CC1)C(=O)NCN2c1ccccc1)c1ccc(F)cc1 [Spiperone, 8-[4-(4-fluorophenyl)-4-oxo-butyl]-1-phenyl-1,3,8-triazaspiro[4.5]decan-4-one] | do not provide potent protection | 100 |  |  |  | affinity for the Sigma-1 receptor in words [1]: nor do they have high affinity; Ki [1, 7]: 1050 ± 334 nM |
| O=C(CCCN1CCC(O)(c2cccc(C(F)(F)F)c2)CC1)c1ccc(F)cc1 [Trifluperidol, 1-(4-fluorophenyl)-4-[4-hydroxy-4-[3-(trifluoromethyl)phenyl]-1-piperidyl]-butan-1-one] |  |  |  | 7.5 ± 6.3 |  | affinity for the Sigma-1 receptor in words [1]: high affinity; Efficacy ± SEM [2]: 55 ± 3.0; in vitro protection in words [2]: high potency protection |
| CN(C)CCCN1c2ccccc2Sc2ccc(Cl)cc21 [Chlorpromazine] |  |  |  | > 1000 | 0 |  |
| O=C(CCCN1CC=C(n2c(=O)[nH]c3ccccc32)CC1)c1ccc(F)cc1 [Droperidol, 1-[1-[4-(4-fluorophenyl)-4-oxo-butyl]-3,6-dihydro-2H-pyridin-4-yl]-3H-benzoimidazol-2-one] | do not provide potent protection | 100 |  | 5270 ± 2230 |  |  |
| Clc1ccc(N2CCN(Cc3c[nH]c4ncccc34)CC2)cc1 [L745870, 3-((4-(4-Chlorophenyl)piperazin-1-yl)-methyl)-1H-pyrrolo-2,3-b-pyridine] |  |  |  |  |  | Efficacy ± SEM [2]: 50 ± 9.6; EC50 ([2]; read-out: In vitro Protective Potency (EC50 ± SEM)): 895 ± 736 nM; EC50 ([2]; read-out: Potency (EC50 ± SEM nM)): 895 ± 736 nM; EC50 ([2]; read-out: Potency (EC50 ± SEM)): 895 ± 736 nM |
| OC1(c2ccc(Cl)cc2)CCN(Cc2c[nH]c3ccccc23)CC1 [L741626] |  |  | 0 |  |  | EC50 [2, 10]: > 1000 nM |
| Cc1cccc(C(=O)NCN2CCN(c3ccccc3C#N)CC2)c1 [PD168077] |  |  | 0 |  |  | EC50 [2, 10]: > 1000 nM |
| Cc1nc2n(c(=O)c1CCN1CCC(c3noc4cc(F)ccc34)CC1)CCCC2 [Risperidone] |  |  |  |  | 0 |  |
| O=C(CCCN1CCC(n2c(=O)[nH]c3ccccc32)CC1)c1ccc(F)cc1 [Benperidol, 1-[1-[4-(4-fluorophenyl)-4-oxo-butyl]-4-piperidyl]-3H-benzoimidazol-2-one] | do not provide potent protection | 66 ± 23 |  | 1160 ± 498 |  | Ki [1]: 252 ± 42 nM; affinity for the Sigma-1 receptor in words [1]: nor do they have high affinity |
| CSc1ccc2c(c1)N(CCC1CCCCN1C)c1ccccc1S2 (centres unmarked) [Thioridazine] |  |  |  |  | 0 |  |
| OCCN1CCN(CCCN2c3ccccc3Sc3ccc(C(F)(F)F)cc32)CC1 [Flupenazine] |  |  |  |  | 0 | EC50 ([2]; read-out: Potency (EC50 ± SEM), protection against oxidative stress induced by 20 mM glutamate, Table 1): > 1000 nM |
| CCN1CCC[C@H]1CNC(=O)c1c(O)c(Cl)cc(Cl)c1OC [S-(−)-Raclopride] | no neuroprotection |  | 0 | > 1000 | 0 | EC50 [2, 10]: > 1000 nM |
| OCCN1CCN(CCCN2c3ccccc3Sc3ccc(Cl)cc32)CC1 [Perphenazine] |  |  |  | > 1000 | 0 |  |
| O=C(CCCN1CCC(O)(c2ccc(Cl)cc2)CC1)c1ccc(Cl)cc1 [Chlorohaloperidol, 1-(4-chlorophenyl)-4-[4-(4-chlorophenyl)-4-hydroxy-1-piperidyl]-butan-1-one] | high potency protection | 64 ± 3.4 |  | 4.3 ± 1.7 |  | Ki [1]: 1.5 ± 0.36 nM; affinity for the Sigma-1 receptor in words [1]: high affinity |
| O=C(CCCN1CCC(O)(c2ccc(Cl)cc2)CC1)c1ccc(F)cc1 [Haloperidol, 4-[4-(4-chlorophenyl)-4-hydroxy-1-piperidyl]-1-(4-fluorophenyl)-butan-1-one] | strong neuroprotection; also recorded: high potency protection | 65 ± 2.5 |  |  | 65 ± 2.5 | antioxidant activity (prevention of lipid peroxidation) [4]: failed to prevent ferric chloride-induced peroxidation of brain lipids; reduction in infarct volume [5]: 50%; B (logistic regression coefficient for stroke) ([3]; full model N = 145,576): −0.464; B (logistic regression coefficient for stroke) [3, 13]: −0.926; decrease of risk of stroke ([3]; patients with CABG surgery in 1997, significant only at the 0.07 level): about 60%; affinity of NMDA receptors for haloperidol [6]: > 1 µM |
| CN1CCN2c3ncccc3Cc3ccccc3C2C1 (centres unmarked) [Mirtazapine] |  |  | 0 | > 1000 |  |  |
| O=C(CCCN1CCC(O)(c2ccc(Br)cc2)CC1)c1ccc(F)cc1 [Bromperidol, 4-[4-(4-bromophenyl)-4-hydroxy-1-piperidyl]-1-(4-fluorophenyl)-butan-1-one] | high potency protection | 67 ± 9.8 |  | 0.95 ± 0.82 |  | affinity for the Sigma-1 receptor in words [1]: high affinity; Ki [1, 7]: 1.2 ± 0.21 nM |
| CN1CCN(C2=Nc3ccccc3Oc3ccc(Cl)cc32)CC1 [Loxapine] |  |  |  | > 1000 | 0 |  |
